In ChEMBL document CHEMBL1275340, “BACE1 inhibitory activities of enantiomerically pure, variously substituted N-(3-(4-benzhydrylpiperazin-1-yl)-2-hydroxypropyl) arylsulfonamides” (Bioorg Med Chem, 2010):
pIC50: −log10 of the molar value.

These compounds were tested against Beta-secretase 1 (Homo sapiens, UniProt P56817) (assay: Inhibition of BACE1 by fluorescence assay).
Chain of Beta-secretase 1 (P56817 whole entry): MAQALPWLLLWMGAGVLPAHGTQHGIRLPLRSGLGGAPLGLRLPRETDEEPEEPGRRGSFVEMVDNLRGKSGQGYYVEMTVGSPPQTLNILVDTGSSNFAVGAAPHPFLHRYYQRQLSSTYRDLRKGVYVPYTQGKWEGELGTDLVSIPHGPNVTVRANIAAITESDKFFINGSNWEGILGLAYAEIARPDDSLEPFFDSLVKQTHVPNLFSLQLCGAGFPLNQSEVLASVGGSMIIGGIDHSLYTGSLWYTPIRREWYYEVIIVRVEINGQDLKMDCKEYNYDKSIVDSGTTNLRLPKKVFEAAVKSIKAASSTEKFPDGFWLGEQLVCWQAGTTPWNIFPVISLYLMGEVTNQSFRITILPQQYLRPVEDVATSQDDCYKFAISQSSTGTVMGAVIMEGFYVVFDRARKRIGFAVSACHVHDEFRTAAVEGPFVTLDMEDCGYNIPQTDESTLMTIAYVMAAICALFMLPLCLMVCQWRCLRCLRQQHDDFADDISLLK

| SMILES | pIC50 |
| --- | --- |
| O=S(=O)(c1ccc(Cl)c(Cl)c1)N(CC1CC1)C[C@H](O)CN1CCN(C(c2ccccc2)c2ccccc2)CC1 | 5.27 |
| O=S(=O)(c1ccc(Cl)c(Cl)c1)N(CC1CC1)C[C@@H](O)CN1CCN(C(c2ccccc2)c2ccccc2)CC1 | 5.33 |
| O=S(=O)(c1ccc(Cl)cc1)N(Cc1ccccc1)C[C@H](O)CN1CCN(C(c2ccccc2)c2ccccc2)CC1 | 5.20 |
| O=S(=O)(c1ccccc1)N(CCc1ccccc1)C[C@H](O)CN1CCN(C(c2ccccc2)c2ccccc2)CC1 | 5.29 |
| O=S(=O)(c1ccccc1)N(CCc1ccccc1)C[C@@H](O)CN1CCN(C(c2ccccc2)c2ccccc2)CC1 | 5.16 |

Now from value to compound:

| pIC50 | SMILES |
| --- | --- |
| 5.64 | O=S(=O)(c1ccc(Cl)cc1)N(CCc1ccccc1)C[C@H](O)CN1CCN(C(c2ccccc2)c2ccccc2)CC1 |
| 5.72 | O=S(=O)(c1ccc(Cl)cc1)N(CCc1ccccc1)C[C@@H](O)CN1CCN(C(c2ccccc2)c2ccccc2)CC1 |
| 5.27 | O=S(=O)(c1ccc(Cl)cc1)N(Cc1ccccc1)C[C@@H](O)CN1CCN(C(c2ccccc2)c2ccccc2)CC1 |
